Earlier results as cited in publication PMC5731893, “Therapeutic potential of an anti-angiogenic multimodal biomimetic peptide in hepatocellular carcinoma” (Oncotarget, 2017).

How the values were obtained:
[1] = system: HCC
From the text: Liver cancer is one of the top causes of cancer related mortality in the world and the incidence has been increasing in the US for decades. Surgical resection and/or liver transplantation are the curative options for early diagnosed hepatocellular cancers. However, the prognosis for advanced stages of the disease is dismal owing to a lack of chemotherapeutic options. A series of anti-angiogenic drugs have been undergoing clinical trials for some time but they have not had much success because of drug related toxicity and partly because many cases of HCC are refractory to different ... || Compared to normal liver cells, HCC tumor cells are often associated with the dysregulation of numerous cellular signaling pathways. Expression changes or mutations of growth factor signaling components, specifically c-Met and insulin-like growth factor 1 receptor (IGF1R) are well documented in the pathogenesis of HCC [10]. Overexpression of c-Met and IGF1R is observed in 20-48% or 33% of HCC tumors, respectively, as are increases in the expression of the IGF1R ligand IGF-II [11]. Downstream effectors of insulin receptor substrates 1 (IRS-1) and 2 (IRS-2) have likewise been r ...

[2] = system: HCC cells
From the text: Liver cancer is one of the top causes of cancer related mortality in the world and the incidence has been increasing in the US for decades. Surgical resection and/or liver transplantation are the curative options for early diagnosed hepatocellular cancers. However, the prognosis for advanced stages of the disease is dismal owing to a lack of chemotherapeutic options. A series of anti-angiogenic drugs have been undergoing clinical trials for some time but they have not had much success because of drug related toxicity and partly because many cases of HCC are refractory to different ...

[3] = system: HCC tumors
From the text: Angiogenesis is a common feature of many solid tumors and plays a critical role in growth and metastatic progression of HCC. […] Aflibercept speci ... || The dual inhibition of cancer and endothelial cell functions may synergize through the reduction of resistance pathways normally associated with anti-angiogenic therapies. While angiogenesis is important for the exponential growth of cancerous tissue, non-angiogenic processes for tumor vascularization may help bypass the effects of strictly angiogenesis-based therapies. In particular, vessel co-option, or the hijacking of existing vasculature for tumor growth, is observed in models of HCC and has been associated with the diminishing efficacy of extended sorafenib treatment. Tumors from orthoto ...

O=C1NC(=O)[C@@H](c2cn3c4c(cccc24)CCC3)[C@@H]1c1c[nH]c2ccccc12 [tivantinib]
effect on overall survival ([1]; phase II, c-Met positive HCC): significantly improve overall survival

CNC(=O)c1cc(Oc2ccc(NC(=O)Nc3ccc(Cl)c(C(F)(F)F)c3)cc2)ccn1 [Sorafenib]
side effects ([1]; human, in vivo): clinically significant | effect on sensitivity to apoptotic stimuli [2]: sensitize the cells to apoptotic stimuli | effect on HCC proliferation ([2]; within the S/G2/M phases of the cell cycle): slow HCC proliferation | vessel co-option vs angiogenic mechanisms after administration ([3]; orthotopic mouse models of HCC): significant preference towards vessel co-option over angiogenic mechanisms

aflibercept: soluble decoy construct containing a fusion of VEGFR1 and VEGFR2 ligand binding domains
effect on tumor growth ([3]; several mouse models of HCC): inhibit tumor growth

CNC(=O)c1cc(Oc2ccc(NC(=O)Nc3ccc(Cl)c(C(F)(F)F)c3)c(F)c2)ccn1 [regorafenib]
increase of median survival ([1]; advanced HCC that progress under sorafenib, phase III): 3 months
